Results reported in US8772029B2, “Modulation of oocyte meiotic progression and oocyte activation” (Northwestern University, priority 2011, dated 2014).
“Also recorded” adds a separate entry of the source.

What was measured:
MPF activity = assay: Histone H1 kinase assay on single oocytes/eggs (MPF activity); format: cell-based, mouse
Method: Histone H1 and myelin basic protein (MBP) dual kinase assays were performed as previously described (Svoboda et al., 2000). Dried gels were exposed to Kodak BIOMAX MR films for 12 to 72 hours at −80° C. using Kodak intensifying screens; films were developed, scanned, and analyzed using ImageJ software. Assays were performed on single oocytes, and densitometric analysis is expressed relative to levels in control eggs.

CCNB1 = assay: Western blot for CCNB1 in oocytes; format: cell-based, mouse; settings: oocytes cultured with 10 μM TPEN during the MI-MII transition
Method: Western blotting was performed essentially as previously described (Bernhardt et al., 2010). Briefly, 15 to 50 cumulus-denuded oocytes were transferred in a minimal amount of medium to microcentrifuge tubes and immediately lysed in 8 μL of 1x SDSPAGE Sample Buffer (Laemmli, 1970). SDS-PAGE gels were run using the Invitrogen NuPAGE system and transferred to Immobilon-P PVDF membranes (Millipore, Billerica, MA). Blocking and antibody incubations were in 2% w/v ECL Advanced Blocking Reagent (Amersham) in TBS-T (20mM Tris, pH7.4, 137mM NaC1, 0.1% Tween20 v/v). Anti-CCNB1antibody was diluted 1:500, anti-FBXO43 was used at 1:1000 dilution, and anti-tubulin antibody was used at 1:10,000. HRP-conjugated secondary antibodies were diluted 1:10,000. Detection was performed using Amersham ECL Advanced detection reagent. BIOMAX MR films (Kodak, Rochester, NY) were exposed and developed, or an Alpha-Innotech (San Learndo, CA) MultiImage II system was used.

MII eggs [1] = settings: literature (Kim et al 2011, Suzuki et al 2010); cited from earlier work
MII eggs [2] = assay: Activation of in vivo ovulated MII eggs (SrCl2, TPEN, ZnPT pre-treatment)
Method: Ovulated MII eggs were collected as described above. Eggs were transferred to KSOM medium with or without 10 μM ZnPT (1:1000 dilution of a 10 mM stock in DMSO) for exactly 5 minutes. Eggs were then washed in KSOM and allowed to recover for 10-15 minutes prior to activation. For SrCl2 activation, eggs were transferred to drops of calcium-free KSOM containing 10 mM SrCl2 for 2 hours, followed by 4 additional hours of culture in calcium-containing KSOM without SrCl2. TPEN activation was performed as previously described (Kim et al., 2011); eggs were cultured for 6 hours in KSOM containing 10 μM TPEN. Unactivated controls were cultured in KSOM for the same 6 hour time period to assess levels of spontaneous parthenogenesis.
MII eggs were treated with the ionophore zinc pyrithione (ZnPT) for 5 minutes to increase intracellular zinc. Following a 10-15 minute recovery period, eggs were then treated with activating agents SrCl2 or TPEN.

[3] = tested on: zinc-insufficient oocytes; assay: Spindle phenotype scoring after IVM in TPEN with proteasome inhibitor MG132 added after 10 h; format: cell-based, mouse; settings: TPEN 16 h without MG132; n=13
Method: For IVM studies, immature female CD1 mice (17 to 21 day old) were injected with 5IU equine chorionic gonadotropin (eCG) (Calbiochem, La Jolla, CA) in 100 μL sterile phosphate-buffered saline (PBS), intraperitoneally. After 44 to 48 hours, mice were anesthetized using isoflurane and euthanized by cervical dislocation. Dissected ovaries were placed in Leibovitz L-15 medium containing 1% FBS (L-15/FBS) and 0.2mM 3-isobutyl-1-methylxanthine (IBMX), and large antral follicles were punctured using 28 gauge needles to release cumulus oocyte complexes (COCs). COCs were washed through several drops of culture medium consisting of Minimum Essential Medium (MEM)-alpha with GLUTAMAX supplemented with 10% FBS, 1.5IU/mL human chorionic gonadotropin (hCG), and 5ng/mL epidermal growth factor and placed in culture medium with or without 10 μM N,N,N′,N′-tetrakis(2-pyridylmethyl) ethylenediamine (TPEN). In some experiments Z-Leu-Leu-Leu-al (MG132) was added to culture medium at 20 μM. COCs were cultured in drops of pre-equilibrated medium covered with embryo quality mineral oil at 37° C. in 5% CO2 with a humid environment. Ovulated MII eggs were collected from 4 to 6 week old mice primed with 5IU PMSG followed 48 h later by 5IU hCG. Oviducts were dissected into L-15/FBS, and eggs were removed and treated with 0.03% (w/v) hyaluronidase to remove cumulus cells. Eggs were washed and cultured in potassium simplex optimized medium (KSOM) (Millipore, Billerica, MA) covered with embryo quality mineral oil at 37° C. in 5% CO2.
Oocytes were denuded of cumulus cells and fixed in a microtubule stabilizing buffer (Ibanez et al., 2005) containing 2% formaldehyde and 1% Triton X-100 for 30 min at 37° C. Oocytes were washed and blocked in PBS containing 0.1M glycine, 3mg/mL BSA, 0.01% Tween 20, and 0.01% sodium azide for at least 1 h and were stored in blocking solution at 4° C. for up to 2 weeks. Oocytes were incubated with anti-tubulin antibody (1:100) for 1 h at 37C. followed by three washes in blocking solution. They were then incubated for 1 h in AlexaFluor-488 conjugated anti-mouse secondary antibody (5μg/mL) and rhodamine-phalloidin (2U/mL), washed three additional times, and mounted in VECTASHIELD with DAPI. Microscopy was performed using a Leica SP5 inverted laser-scanning confocal microscope with a 63x oil immersion objective (Leica Microsystems, Heidelberg, Germany). Images were processed using LAS AF software (Leica Microsystems).
It has been previously shown that zinc-insufficient oocytes fail to increase MPF activity following the first meiotic division and have low CCNB1 protein levels (Bernhardt et al., 2010). In order to determine whether this decrease in CCNB1 is the major cause of the observed meiotic arrest phenotype, it was tested whether increasing CCNB1 would be sufficient to rescue MII entry in zinc-insufficient oocytes by inhibiting the proteasome at the end of the MI-MII transition, thereby halting CCNB1 degradation. Experimental oocytes were cultured for 10 hours in TPEN-containing medium and were then transferred into medium containing TPEN as well as the proteasome inhibitor Z-Leu-Leu-Leu-al (MG132) at 20 μM concentration. MG132 was added after first polar body extrusion, because earlier addition would result in MI arrest due to failure to degrade APC/C targets that prevent cell division. Oocytes were cultured for an additional 6 h in the presence of MG132 to allow time for CCNB1 reaccumulation, for a total 16 h IVM culture period. Proteasome inhibition led to a partial rescue of the zinc insufficiency phenotype. 69% of treated oocytes formed spindle-like structures, and none were in telophase I arrest, despite being cultured in the presence of TPEN for the entire culture period (FIG. 2, A; Table 2).
A majority of zinc-insufficient oocytes treated with MG132 following the first meiotic division transition progress beyond telophase-I arrest and form MII spindle-like structures. […]

SMILES: c1ccc(CN(CCN(Cc2ccccn2)Cc2ccccn2)Cc2ccccn2)nc1 [TPEN, N,N,N′,N′-tetrakis(2-pyridylmethyl)ethylenediamine]
- MPF activity (histone H1 kinase) in MII eggs (MPF activity; in vivo ovulated MII eggs, KSOM with 10 μM TPEN, 1 to 8 hours, seen as soon as 1 hour): decline
- MPF activity (histone H1 kinase) (MPF activity; oocytes cultured with 10 μM TPEN during the MI-MII transition (7.5 h control, 6.5 h TPEN)): low
- CCNB1 protein levels (CCNB1): low
- activation of MII-arrested eggs by zinc sequestration with TPEN (MII eggs [1]): causes egg activation and resumption of cell cycle; also recorded: induce egg activation and embryo development
- egg activation by TPEN after ZnPT pre-treatment (MII eggs [2]; MII eggs, 10 μM ZnPT 5 minutes, then 10 μM TPEN 6 h): caused activation
- egg activation (second polar body and PN or PN-like structures) (MII eggs [2]; control MII eggs, by 6 hours post activation, 10 mM SrCl2 2 h or 10 μM TPEN 6 h): activated normally
- MII (aligned metaphase plate) [3]: 0%
- other spindle phenotype [3]: 23%
- persisting midbody or chromatin mass [3]: 0%
- spindle with chr. scattered along length [3]: 0%
- spindle with ≦3 chr. out of place [3]: 0%
